Data: US12662518B2, “Engineered peptide and peptide mimetic compositions and methods” (The Wistar Institute of Anatomy and Biology, priority 2019, dated 2026)
pKd: −log10 of the molar value. Peptide text beside a SMILES is read from it.

What was measured:
[1] = test system: prostate cancer cell types (LNCaP, C4-2B, PC3, DU145); assay: cell death of prostate cancer cells, CellTox reactivity; assay type: cell-based, human; details: PC3 / prostate cancer cells, 0-50 μM
Protocol: Cell death and apoptosis. […] The various cell-permeable MFF peptides were examined for induction of cytotoxicity using a CellTOX Green cytotoxicity assay kit (Promega). Briefly, 10^4 normal or tumor cells in 100 μl complete medium were plated on white opaque 96-well plate. […] Lysis Solution in the assay kit was used as cytotoxicity control (100% cell death) and treatment with PBS was used as a control for 100% cell viability.

[2] = test system: DU145 or PC3 cells; assay: release of HMGB1 and cyclophilin A from tumor cells, Western blotting; assay type: cell-based, human; details: marker of necrosis
[3] = test system: PC3 cells; assay: cytochrome c release from tumor cells, Western blotting; assay type: cell-based, human; details: supernatants vs mitochondrial extracts
[4] = target: T1, human recombinant VDAC (Homo sapiens, UniProt P21796); assay: isothermal titration calorimetry (ITC); assay type: binding; details: 20° C.
T1 construct: The cleaved, full length hVDAC1 was collected from the HS-HQ flow through; hexahistidine-SUMO (N, cleaved yes); made in house; host or cells: E. coli ScarabXpress T7 lac
Protocol: Expression and purification of human VDAC1. A full length human VDAC1 cDNA (hVDAC1) was cloned into pET28b vector containing an N-terminal hexahistidine-SUMO fusion tag, with a flexible linker cleavable by tobacco etch virus (TEV) protease. The hVDAC1 was expressed in E. coli ScarabXpress T7 lac competent cells (Scarab genomics) for 16 h at 16° C. using 1 mM IPTG (Denville Scientific Inc.). The cells were harvested by centrifugation and lysed on ice via sonication in buffer containing 25 mM Tris-HCl (pH 7.5), 1 M Urea, 1 M KCl, 5% glycerol, 1 mM Benzamidine and 1 mM PMSF (Ni Buffer A). The lysate was centrifuged at 18,000 rpm for 20 min at 4° C. The cell pellet was first washed extensively in Ni Buffer A with 1% Triton X-100 and then solubilized in buffer containing 20 mM Tris-HCl (pH 7.9), 500 mM NaCl, 4 M guanidine-HCl and 10% glycerol for 45 min with gentle stirring. The supernatant was collected following centrifugation at 20,000 rpm for 10 min at 4° C. The protein was then purified over nickel-nitrilotriacetic acid (Ni-NTA—Qiagen) column and buffer-exchanged to 25 mM Tris-HCl (pH 7.5), 500 mM KCl, 5% glycerol, 1 mM benzamidine and 1 mM PMSF (Ni buffer C) with 2% n-Octylglucoside (Research Products International). The protein was then eluted with 300 mM imidazole and treated overnight with TEV at 4° C. to cleave the His-SUMO tag. […]

[5] = test system: NSCLC A549 and H460 or breast adenocarcinoma MDA-231 and MCF-7 cells; assay: NSCLC and breast adenocarcinoma cell lines, TMRE flow cytometry and CellTox cell death; assay type: cell-based, human; details: A549, H460, MDA-231, MCF-7 cells, 10-25 μM, TMRE
[6] = test system: isolated tumor (PC3) mitochondria; assay: high-throughput assay for depolarization of isolated tumor (PC3) mitochondria, TMRE staining; assay type: biochemical, human; details: MFF peptides 20 μM
Protocol: Analysis of mitochondrial membrane potential. […] In some experiments, PC3 cells were treated with cell-permeable scrambled peptide or cell-permeable MFF #8-11 peptide, washed three times in PBS, pH 7.4, and analyzed on a FACSCalibur flow cytometer, with the TMRE signal as FL1. Intact cells were gated in the FSC/SSC plot to exclude small debris. Cells treated with 20 μM FCCP 10 min prior to TMRE staining were used as a negative control. The resulting FL1 data were plotted on a histogram. For quantification of membrane potential of purified mitochondria, mitochondria isolated from PC3 cells (50 μg) were suspended in 400 μl of SB buffer (0.2 M sucrose, 10 mM Tris-MOPS, pH 7.4, 5 mM succinate, 1 mM sodium phosphate, 10 μM EGTA-Tris, 2 μM rotenone). […] After two washes with SB buffer, mitochondria were recovered by centrifugation at 6000×g for 10 min, suspended in 100 μl of SB buffer and mitochondrial membrane potential was quantified on a florescence microplate reader (Ex/Em=535/595 nm, Beckman Coulter). Samples treated with 2 mM CaCl2 were used as control for the lowest membrane potential (fully depolarized state).

[7] = test system: mitochondria of normal BPH-1 cells; assay: depolarization of isolated mitochondria of normal BPH-1 cells, TMRE staining; assay type: biochemical, human; details: peptide #8 10-30 μM
[8] = target: T2, MFF-PTP complex (MFF and VDAC or HK-I) (Homo sapiens, UniProt P21796); assay: competition of MFF-PTP complex in isolated cell extracts, Flag-MFF1 immunoprecipitation and Western blotting; assay type: biochemical; details: added to isolated cell extracts
T2 construct: VDAC and HK-I are endogenous
Protocol: Immunoprecipitation (IP). Cells were harvested and lysed with IP buffer (50 mM Tris-HCl, pH 7.5, 150 mM NaCl, 1 mM EDTA) containing 1% CHAPS, EDTA-free Protease Inhibitor Cocktail (Sigma-Aldrich) and Phosphatase Inhibitor Cocktail PhosSTOP (Roche). After sonication, lysates were centrifuged at 15,000×g for 30 min, and cell extracts were incubated with anti-Flag-conjugated beads (Sigma-Aldrich). The precipitates were washed five times, separated by SDS-polyacrylamide gel electrophoresis and processed for Western blotting together with samples representing unbound material and supernatant.
Immunoprecipitation. Cells were harvested and lysed with PLD assay buffer (50 mM HEPES-NaOH, pH 7.3, 3 mM EGTA, 3 mM CaCl2, 3 mM MgCl2, 80 mM KCl) containing 1% CHAPS, EDTA-free Protease Inhibitor Cocktail (Sigma-Aldrich) and Phosphatase Inhibitor Cocktail PhosSTOP (Roche). After sonication, lysates were centrifuged at 15,000×g for 30 min, and cell extracts were incubated with anti-Flag-conjugated beads (Sigma-Aldrich). The precipitates were washed five times, separated by sodium dodecyl sulfate-polyacrylamide gel electrophoresis (SDS-PAGE) and processed for Western blotting.

T1 sequence (P21796 whole entry): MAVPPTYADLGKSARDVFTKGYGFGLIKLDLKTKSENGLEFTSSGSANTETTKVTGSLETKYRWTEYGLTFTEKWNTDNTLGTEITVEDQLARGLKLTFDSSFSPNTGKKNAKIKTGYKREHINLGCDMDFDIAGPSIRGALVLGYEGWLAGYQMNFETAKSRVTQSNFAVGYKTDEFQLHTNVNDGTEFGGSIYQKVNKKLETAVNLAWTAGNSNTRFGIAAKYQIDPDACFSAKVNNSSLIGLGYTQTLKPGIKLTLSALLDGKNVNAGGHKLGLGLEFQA
T2 sequence (P21796 2-283 limits assumed, one chain of several): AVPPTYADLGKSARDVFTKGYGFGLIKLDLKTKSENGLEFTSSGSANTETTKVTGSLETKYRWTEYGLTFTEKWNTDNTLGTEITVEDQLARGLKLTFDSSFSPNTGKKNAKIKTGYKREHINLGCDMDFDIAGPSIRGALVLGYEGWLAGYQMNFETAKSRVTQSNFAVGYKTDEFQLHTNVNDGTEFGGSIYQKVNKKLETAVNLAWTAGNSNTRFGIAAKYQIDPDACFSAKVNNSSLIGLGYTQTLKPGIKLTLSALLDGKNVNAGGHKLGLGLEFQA

Question: For “MFF peptide #8-11 containing the double mutation R225D/R236D (DD): cell-permeable MFF peptide #8-11 mutant containing the double mutation R225D/R236D (DD) (RQIKIWFQNRRMKSADGILSLIQSSTDRAYQQIL)”, which “tumor cell death / viability” value [1] is on record?
Answer: did not affect tumor cell viability

Question: And the “tumor cell death / viability” value ([1]; listed as DD)?
Answer: entirely lost the ability to induce tumor (PC3) cell death

Question: What about the “HMGB1 release from tumor cells” value [2] of the same compound?
Answer: had no effect on HMGB1 release

Question: What about the “HMGB1 release from tumor cells” value ([2]; listed as MFF-DD mutant peptide #8-11) of the same compound?
Answer: did not induce HMGB1 release

Question: For “AEMAEISRIQYEMEYTEGISQRMRVP (MFF-Derived; Peptide #1) [MFF #1]”, which “cytochrome c release from tumor cells” value [3] is on record?
Answer: had no effect

Question: With “SSQLRYLARSQRITIQLIAGS (MFF Scramble; Peptide 8 #11) [scrambled sequence]” as the compound, how does the “binding to human recombinant VDAC by ITC” value [4] read?
Answer: ineffective

Question: And the mitochondrial membrane potential [5]?
Answer: not

Question: How did the “depolarization of isolated tumor (PC3) mitochondria” value (“depolarization of isolated tumor” for short) [6] turn out when “SARGILSLIQSSTRRAYQQILDVL (MFF Deletion; Peptide 8 #2) [peptide #8 variant #2]” was run?
Answer: depolarized isolated tumor mitochondria

Question: For “DGANLSSARGILSLIQSSTRRAYQQIL (MFF Deletion; Peptide 8 #6) [peptide #8 variant #6]”, which “depolarization of isolated tumor” value [6] is on record?
Answer: depolarized isolated tumor mitochondria

Question: For “DGANLSSARGILSLIQSSTRRAYQQILDVL (MFF-Derived; Peptide #8) [MFF peptide #8]”, which “depolarization of isolated tumor” value [6] is on record?
Answer: depolarized tumor mitochondria

Question: And the “depolarization of mitochondria of normal BPH-1 cells” value [7]?
Answer: did not depolarize

Question: What about the “disruption of the interaction between MFF and VDAC or HK-I” value [8] of the same compound?
Answer: disrupting the interaction between MFF and VDAC or HK-I

Question: How did the pKd [4] turn out when `CC[C@H](C)[C@H](NC(=O)CNC(=O)[C@H](CCCNC(=N)N)NC(=O)[C@H](C)NC(=O)[C@@H](N)CO)C(=O)N[C@@H](CC(C)C)C(=O)N[C@@H](CO)C(=O)N[C@@H](CC(C)C)C(=O)N[C@H](C(=O)N[C@@H](CCC(N)=O)C(=O)N[C@@H](CO)C(=O)N[C@@H](CO)C(=O)N[C@H](C(=O)N[C@@H](CCCNC(=N)N)C(=O)N[C@@H](CCCNC(=N)N)C(=O)N[C@@H](C)C(=O)N[C@@H](Cc1ccc(O)cc1)C(=O)N[C@@H](CCC(N)=O)C(=O)N[C@@H](CCC(N)=O)C(=O)N[C@H](C(=O)N[C@@H](CC(C)C)C(=O)O)[C@@H](C)CC)[C@@H](C)O)[C@@H](C)CC` [MFF peptide #8-11] (H-SARGILSLIQSSTRRAYQQIL-OH) was run?
Answer: ~4.92

Question: Which “depolarization of isolated tumor” value [6] does the source give for “NLSSARGILSLIQSSTRRAYQQILDVL (MFF Deletion; Peptide 8 #1) [peptide #8 variant #1]” here?
Answer: depolarized isolated tumor mitochondria
